In the RepoRT retention time repository:

Test: A: acetonitrile + 0.1% formic acid + 10 mM ammonium formate; B: 5% water + 95% acetonitrile + 0.1% formic acid + 10 mM ammonium formate; gradient (min/%B) 0/10 2/10 22/100 27/100 27.1/10
Details: stereoisomer not certain

| LC retention time [min] | Structure (SMILES) |
| --- | --- |
| 2.5 | Nc1nc(N)c2nc(-c3ccccc3)c(N)nc2n1 [Triamterene] |
| 0.561 | COc1cc(C=CC(=O)O)cc(OC)c1O [Sinapic acid] |
| 8.44 | Cc1ncc(C[n+]2csc(CCOP(=O)([O-])O)c2C)c(N)n1 [Thiamine monophosphate] |
| 3.67 | CC1OC(OC2C(Oc3cc(O)c4c(c3)OC(c3ccc(O)cc3)CC4=O)OC(CO)C(O)C2O)C(O)C(O)C1O (centres undefined) [Naringin] |
| 1.88 | O=c1[nH]c(=O)c2cn[nH]c2[nH]1 [Oxipurinol] |
| 1.19 | Fc1ccc(C2CCNCC2COc2ccc3c(c2)OCO3)cc1 (centres undefined) [Paroxetine] |
| 5.96 | NC(=O)NC(CC(=O)O)C(=O)O (centres undefined) [Ureidosuccinic acid] |
| 0.407 | C=C1CCC(O)CC1=CC=C1CCCC2(C)C1CCC2C(C)CCCC(C)C (centres undefined) [Vitamin D3] |
| 3.49 | CC(=O)N[C@@H](CS)C(=O)O [N-Acetyl-L-cysteine] |
| 1.01 | c1ncc2[nH]cnc2n1 [Purine] |
| 6.56 | N[C@@H](CO)C(=O)O [L-Serine] |
| 6.86 | O=c1ccn(C2OC(COP(=O)(O)O)C(O)C2O)c(=O)[nH]1 (centres undefined) [Uridine-5'-phosphoric acid] |
| 0.981 | Cc1ncc(CO)c(C=O)c1O [Pyridoxal] |
| 6.17 | CC(=O)NC(CCCCN)C(=O)O [N-alpha-Acetyl-L-lysine] |
| 5.88 | CC(=O)O[C@H](CC(=O)[O-])C[N+](C)(C)C [O-Acetyl-L-carnitine] |
| 5.65 | CCC[C@H](N)C(=O)O [L-Norvaline] |
| 4.61 | CC(=O)NCCCCCN [N-(5-Aminopentyl)acetamide] |
| 8.5 | CC(=O)NCCCNCCCCNCCCN [N1-Acetylspermine] |

| LC retention time [min] | Structure (SMILES) |
| --- | --- |
| 0.475 | Cc1c(OCC(F)(F)F)ccnc1CS(=O)c1nc2ccccc2[nH]1 (centres undefined) [Lansoprazole] |
| 1.55 | OCCN1CCN(CCCN2c3ccccc3Sc3ccc(Cl)cc32)CC1 [Perphenazine] |
| 0.596 | Cn1c(=O)c2[nH]cnc2n(C)c1=O [Theophylline] |
| 0.418 | COC(=O)C1=C(C)NC(C)=C(C(=O)OC)C1c1ccccc1[N+](=O)[O-] [Nifedipine] |
| 0.887 | CCC(=C(c1ccccc1)c1ccc(OCCN(C)C)cc1)c1ccccc1 [Tamoxifen] |
| 6.22 | C[C@@H](O)[C@H](N)C(=O)O [L-Threonine] |
| 3.46 | O=C(O)CNC(=O)c1cccc(O)c1 [m-Hydroxyhippuric Acid] |
| 6.84 | CC(=O)NC1C(O)CC(O)(C(=O)O)OC1C(O)C(O)CO (centres undefined) [N-Acetylneuraminic acid] |
| 0.474 | COc1cc(C2Oc3cc(C4Oc5cc(O)cc(O)c5C(=O)C4O)ccc3OC2CO)ccc1O (centres undefined) [Silibinin] |
| 0.678 | NC(=O)c1cccnc1 [Niacinamide] |
| 0.772 | CN(C)CCOc1ccc(C(=C(CCCl)c2ccccc2)c2ccccc2)cc1 [Toremifene] |
| 7.44 | OCC1OC(OC2C(CO)OC(OC3C(CO)OC(O)C(O)C3O)C(O)C2O)C(O)C(O)C1O (centres undefined) [Maltotriose] |
| 3.03 | CNC(=C[N+](=O)[O-])NCCSCc1csc(CN(C)C)n1 [Nizatidine] |
| 6.54 | CN[C@@H](CCC(=O)O)C(=O)O [N-Methyl-L-glutamic acid] |
| 1.32 | CC(=O)N[C@@H](Cc1ccccc1)C(=O)O [N-Acetyl-L-phenylalanine] |
| 7.25 | CC(=O)NCCCCNCCCN [N8-Acetylspermidine] |
| 2.92 | O=c1[nH]c(=O)c2[nH]cnc2[nH]1 [Xanthine] |
| 0.429 | CC(=O)C1(O)CCC2C3CC(C)C4=CC(=O)CCC4(C)C3CCC21C (centres undefined) [Medroxyprogesterone] |

The remaining lines, values behind:

| Structure (SMILES) | LC retention time [min] |
| --- | --- |
| COc1cc(OC)cc(OC)c1 [1,3,5-Trimethoxybenzene] | 0.423 |
| COc1cccc(OC)c1C(=O)O [2,6-Dimethoxybenzoic acid] | 0.628 |
| O=C(O)CCCCCCCC(=O)O [Azelaic acid] | 0.604 |
| Nc1ccc(O)cc1 [4-Aminophenol] | 0.517 |
| CC(=O)CC(=O)CCC(=O)O [4,6-Dioxoheptanoic acid] | 0.575 |
| COc1ccc2[nH]cc(CC(N)C(=O)O)c2c1 (racemic) [5-Methoxy-DL-tryptophan] | 4.49 |
| O=P(O)(O)OCC1OC(O)C(O)C(O)C1O [D-Glucose 6-phosphate] | 7.76 |
| COc1cc(CCN)ccc1O [3-Methoxytyramine] | 2.92 |
| CC(=O)C1(O)CCC2C3CCC4=CC(=O)CCC4(C)C3CCC21C (stereo not drawn) [17-alpha-Hydroxyprogesterone] | 0.437 |
| COc1ccc(C2CC(=O)c3c(O)cc(OC4OC(COC5OC(C)C(O)C(O)C5O)C(O)C(O)C4O)cc3O2)cc1O (centres undefined) [Hesperidin] | 2.97 |
| C[N+](C)(C)CC(=O)[O-] [Betaine] | 5.7 |
| CC(C)NCC(O)COc1ccc(CC(N)=O)cc1 (centres undefined) [Atenolol] | 3.34 |
| NC(=O)NC1NC(=O)NC1=O (centres undefined) [Allantoin] | 3.1 |
| N[C@@H](CCO)C(=O)O [L-Homoserine] | 6.32 |
| Cc1occc(=O)c1O [3-Hydroxy-2-methyl-4-pyrone] | 0.613 |
| NC(CCSCC(N)C(=O)O)C(=O)O (centres undefined) [Cystathionine] | 8.01 |
| O=C(O)c1cc(=O)c2ccccc2[nH]1 [Kynurenic acid] | 3.56 |
| O=C(O)CCc1c[nH]c2ccccc12 [3-Indolepropionic acid] | 0.467 |
| N[C@H](CO)Cc1cnc[nH]1 [L-Histidinol] | 7.05 |
| CC1(C)SC2C(NC(=O)C(N)c3ccc(O)cc3)C(=O)N2C1C(=O)O (centres undefined) [Amoxicillin] | 5.79 |

| Structure (SMILES) | LC retention time [min] |
| --- | --- |
| Cn1cnc2[nH]c(=O)[nH]c(=O)c21 [7-Methylxanthine] | 1.37 |
| Nc1nc2nc[nH]c2c(=O)[nH]1 [Guanine] | 3.98 |
| Nc1ncnc2c1ncn2C1OC(CO)C(O)C1O (centres undefined) [Adenosine] | 2.08 |
| O=C(O)CN(CCO)CCO [Bicine] | 6.2 |
| CC(C)(N)C(=O)O [2-Aminoisobutyric acid] | 5.89 |
| NCC(O)c1ccccc1 (centres undefined) [2-Amino-1-phenylethanol] | 2.92 |
| CNCCc1ccc(O)cc1 [N-Methyltyramine] | 2.53 |
| CCc1occc(=O)c1O [2-Ethyl-3-hydroxy-4H-pyran-4-one] | 0.586 |
| CC12CCC(=O)C=C1C=CC1C2CCC2(C)C1CCC21CCC(=O)O1 (centres undefined) [Canrenone] | 0.429 |
| COc1ccc2c(c1)C(=O)N(CCc1ccc(S(=O)(=O)NC(=O)NC3CCCCC3)cc1)C(=O)C2(C)C [Gliquidone] | 0.417 |
| O=C(O)CCCCCCCCCCCC(=O)O [1,11-Undecanedicarboxylic acid] | 0.554 |
| COc1ccc(-c2coc3cc(O)ccc3c2=O)cc1 [Formononetin] | 0.446 |
| NC[C@@H](O)CC(=O)O [(S)-(+)-4-Amino-3-hydroxybutyric acid] | 6.5 |
| COc1cc(O)cc(OC)c1 [3,5-Dimethoxyphenol] | 0.433 |
| NC(Cc1cc(I)c(Oc2ccc(O)c(I)c2)c(I)c1)C(=O)O (stereo not drawn) [3,3',5-Triiodo-l-thyronine] | 3.5 |
| Nc1ccn(C2OC(COP(=O)(O)OP(=O)(O)OP(=O)(O)O)C(O)C2O)c(=O)n1 (centres undefined) [Cytidine 5'-triphosphate] | 10.1 |
| CN1CCCC1c1cccnc1 [L-Nicotine] | 3.88 |
| CC(C)C[C@H](NC(=O)CN)C(=O)O [Glycyl-L-leucine] | 5.81 |
| O=c1cc(-c2ccccc2)oc2cc(O)cc(O)c12 [Chrysin] | 0.434 |
| Nc1nc2c(ncn2C2OC(CO)C(O)C2O)c(=O)[nH]1 (centres undefined) [Guanosine] | 4.96 |

| Structure (SMILES) | LC retention time [min] |
| --- | --- |
| NC(N)=NCC(=O)O [Guanidoacetic acid] | 6.12 |
| CN(CC(=O)O)C(N)=NP(=O)(O)O [Creatine phosphate] | 7.86 |
| COc1ccc(CC(=O)O)cc1OC [3,4-Dimethoxyphenylacetic acid] | 0.554 |
| O=C1CCNC(=O)N1 [Dihydrouracil] | 0.746 |
| NC(=O)CC[C@H](N)C(=O)O [L-Glutamine] | 6.54 |
| NC(=O)c1ncn(C2OC(CO)C(O)C2O)c1N [5-Aminoimidazole-4-carboxamide-1-beta-D-ribofuranoside] | 3.02 |
| Cc1cnc(C(=O)NCCc2ccc(S(=O)(=O)NC(=O)NC3CCCCC3)cc2)cn1 [Glipizide] | 0.463 |
| O=C(CO)COP(=O)(O)O [Dihydroxyacetone phosphate] | 6.59 |
| O=c1c(-c2ccc(O)cc2)coc2cc(O)cc(O)c12 [Genistein] | 0.458 |
| Nc1ccnc(=O)[nH]1 [Cytosine] | 3.35 |
| NC1(C(=O)O)CC1 [1-Aminocyclopropanecarboxylic acid] | 6.03 |
| CC(CN)C(=O)O (centres undefined) [3-Aminoisobutanoic acid] | 5.88 |
| O=C(O)C1CCCCN1 (stereo not drawn) [L(-)-Pipecolinic acid] | 5.85 |
| CCCCCC(=O)OCC(COC(=O)CCCCC)OC(=O)CCCCC [Glycerol Trihexanoate] | 0.406 |
| NCCc1ccc(O)c(O)c1 [Dopamine] | 4.22 |
| Nc1nc2c(ncn2COC(CO)CO)c(=O)[nH]1 [Ganciclovir] | 4.73 |
| CC(CCC(=O)NCC(=O)O)C1CCC2C3CCC4CC(O)CCC4(C)C3CC(O)C12C (centres undefined) [Glycodeoxycholic acid] | 2.78 |
| CC(C)NCC(O)COc1cccc2ccccc12 (racemic) [(+/-)-Propranolol] | 1.21 |
